Results published in patent publication US5965560A, “Substituted piperazines and piperidines as central nervous system agents” (priority 1997, dated 1999).
Structures can show the parent of a compound that is named as a salt.

What was measured:
[1] = target: human D3 receptor (DA D3) (Homo sapiens, UniProt P35462); test: inhibition of [^3 H]spiperone binding to the human D3 receptor; conditions: human D3, [^3 H]spiperone
[2] = target: T1, human D4 dopamine receptor (DA D4) (Homo sapiens, UniProt P21917); test: inhibition of radioligand binding to the human D4 dopamine receptor
T1 sequence (P21917 1-419): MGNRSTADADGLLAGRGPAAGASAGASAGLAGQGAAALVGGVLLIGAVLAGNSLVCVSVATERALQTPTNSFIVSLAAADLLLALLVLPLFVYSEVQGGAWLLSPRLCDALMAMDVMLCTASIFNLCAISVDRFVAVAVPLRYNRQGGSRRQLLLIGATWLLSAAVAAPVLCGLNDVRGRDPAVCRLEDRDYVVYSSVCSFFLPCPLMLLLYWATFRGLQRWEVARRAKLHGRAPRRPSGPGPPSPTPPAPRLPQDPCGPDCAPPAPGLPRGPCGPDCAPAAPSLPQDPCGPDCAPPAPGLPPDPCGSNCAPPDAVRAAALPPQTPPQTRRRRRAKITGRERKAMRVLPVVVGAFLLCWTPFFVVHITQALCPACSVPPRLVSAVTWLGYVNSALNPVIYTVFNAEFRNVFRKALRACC
Protocol: Compounds were tested for their ability to bind to dopamine receptors as measured by their inhibition of [^3 H]spiperone binding to the human D2, D3 receptors in a receptor assay described by MacKenzie R. G., VanLeeuwen D., Pugsley T. A., et al., "Characterization of the human dopamine D3 receptor expressed in transfected cell lines." Eur. J. Pharmacol.-Mol. Pharmacol., 1994;266:79-85; for the human D4 dopamine receptor in a receptor assay by Pugsley T. A., Davis M. D., Akunne H. C., et al., "CI-1007, a dopamine partial agonist and potential antipsychotic agent. I. Neurochemical Effects." J. Pharmacol. Exp. Ther., 1995;274:898-911; and for ability to block the action of an agonist in a [^3 H]thymidine incorporation assay described by Lajiness N. E., Chio C. L., Huff R. M., "D2 dopamine receptor stimulation of mitogenesis in transfected Chinese hamster ovary cells: relationship to dopamine stimulation of tyrosine phosphorylations." J. Pharmacol. Exp. Ther., 1993;267:1573-81. This test determines the agonist/antagonist character of a compound by measuring [^3 H]thymidine update in Chinese hamster ovary (CHO) pro-5 cells expressing the DA D4 receptor. Agonists, such as quinpirole, promote cell growth and subsequent [^3 H]thymidine incorporation, while antagonists block the action of agonists. […] The above test methods are incorporated herein by reference.

[3] = target: human D2 receptor (DA D2) (Homo sapiens, UniProt P14416); test: inhibition of [^3 H]spiperone binding to the human D2 receptor; conditions: human D2, [^3 H]spiperone
Chain of human D2 receptor (DA D2) (P14416 whole entry): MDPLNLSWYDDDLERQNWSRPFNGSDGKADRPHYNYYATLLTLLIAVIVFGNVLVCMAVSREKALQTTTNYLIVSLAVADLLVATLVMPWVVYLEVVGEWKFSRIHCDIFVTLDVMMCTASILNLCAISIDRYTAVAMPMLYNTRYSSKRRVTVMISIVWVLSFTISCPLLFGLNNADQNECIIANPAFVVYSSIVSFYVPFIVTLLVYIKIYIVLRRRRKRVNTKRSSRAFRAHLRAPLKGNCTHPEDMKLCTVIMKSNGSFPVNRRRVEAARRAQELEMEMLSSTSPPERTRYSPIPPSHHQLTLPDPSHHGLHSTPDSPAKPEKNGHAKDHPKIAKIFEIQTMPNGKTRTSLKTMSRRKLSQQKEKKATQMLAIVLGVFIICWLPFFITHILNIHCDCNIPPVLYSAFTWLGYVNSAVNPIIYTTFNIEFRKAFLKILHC

DA D4 receptor = conditions: D4 versus D2; Van Tol et al., Nature 1991; cited from earlier work
[4] = clozapine, background section; cited from earlier work

Chain of human D3 receptor (DA D3) (P35462 whole entry): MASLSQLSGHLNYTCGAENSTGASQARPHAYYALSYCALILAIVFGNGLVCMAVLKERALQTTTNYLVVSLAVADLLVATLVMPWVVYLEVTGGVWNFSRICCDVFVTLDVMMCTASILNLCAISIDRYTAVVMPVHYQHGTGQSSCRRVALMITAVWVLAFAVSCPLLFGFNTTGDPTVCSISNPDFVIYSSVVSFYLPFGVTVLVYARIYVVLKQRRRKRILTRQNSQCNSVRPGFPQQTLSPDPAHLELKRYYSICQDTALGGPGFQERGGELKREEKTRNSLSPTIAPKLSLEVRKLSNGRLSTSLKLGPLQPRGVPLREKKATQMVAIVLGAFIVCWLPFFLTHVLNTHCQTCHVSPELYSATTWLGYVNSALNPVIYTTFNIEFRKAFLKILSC

Row | Structure (SMILES) | Ki [1] | Ki [2] | Ki [3] | affinity for the DA D4 receptor relative to D2 (DA D4 receptor) | extrapyramidal side effects and tardive dyskinesia [4]
1 | COc1ccc(CN2CCN(c3cccc(C)c3Cl)CC2)cc1OC [Example 29, 1-(2-Chloro-3-methylphenyl)-4-(3,4-dimethoxybenzyl)-piperazine, monohydrochloride] | 1210 nM | 5 nM | 2340 nM |  | 
2 | COc1cc(CN2CCN(c3ccc(C)cc3)CC2)cc(OC)c1OC [Example 8, 1-p-Tolyl-4-(3,4,5-trimethoxybenzyl)piperazine, monohydrochloride] | 6820 nM | 7.5 nM | 1410 nM |  | 
3 | COc1cc(CN2CCN(c3cc(Cl)ccc3C)CC2)cc(OC)c1OC [Example 21, 1-(5-Chloro-2-methylphenyl)-4-(3,4,5-trimethoxybenzyl)-piperazine, monohydrochloride] | 3510 nM | 6.5 nM | 1560 nM |  | 
4 | COc1cc(CN2CCN(c3ccc(C)c(Cl)c3)CC2)cc(OC)c1OC [Example 20, 1-(3-Chloro-4-methylphenyl)-4-(3,4,5-trimethoxybenzyl)-piperazine, monohydrochloride] | 2030 nM | 4.5 nM | 3290 nM |  | 
5 | COc1ccc(OC)c(CN2CCN(c3cccc(C)c3Cl)CC2)c1 [Example 28, 1-(2-Chloro-3-methylphenyl)-4-(2,5-dimethoxybenzyl)-piperazine, monohydrochloride] | 730 nM | 11.3 nM | 2080 nM |  | 
6 | COc1cc(CN2CCN(c3cccc(C)c3)CC2)cc(OC)c1OC [Example 7, 1-m-Tolyl-4-(3,4,5-trimethoxybenzyl)piperazine, monohydrochloride] | 2770 nM | 8.6 nM | 1460 nM |  | 
7 | COc1cc(CN2CCN(c3cccc(Cl)c3C)CC2)cc(OC)c1OC [Example 19, 1-(3-Chloro-2-methylphenyl)-4-(3,4,5-trimethoxybenzyl)-piperazine, monohydrochloride] | 2120 nM | 6.1 nM | 1050 nM |  | 
8 | COc1ccc(CN2CCN(c3cccc(C)c3Cl)CC2)c(OC)c1 [Example 27, 1-(2-Chloro-3-methylphenyl)-4-(2,4-dimethoxybenzyl)-piperazine, monohydrochloride] | 409 nM | 4.4 nM | 762 nM |  | 
9 | CN1CCN(C2=Nc3cc(Cl)ccc3Nc3ccccc32)CC1 [clozapine] |  |  |  | tenfold higher affinity | lack of extrapyramidal side effects and tardive dyskinesia
10 | COc1cccc(CN2CCN(c3cccc(C)c3Cl)CC2)c1OC [Example 26, 1-(2-Chloro-3-methylphenyl)-4-(2,3-dimethoxybenzyl)-piperazine, monohydrochloride] | 2650 nM | 12.7 nM | 2900 nM |  | 
